Molecular target: T1, human recombinant ALK1 (GST fused to ALK1 intracellular domain [His142-Gln503]) (Homo sapiens, UniProt P37023)
T1 construct: GST fused to ALK1 intracellular domain [His142-Gln503]; made in house
T1 sequence (P37023 142-503): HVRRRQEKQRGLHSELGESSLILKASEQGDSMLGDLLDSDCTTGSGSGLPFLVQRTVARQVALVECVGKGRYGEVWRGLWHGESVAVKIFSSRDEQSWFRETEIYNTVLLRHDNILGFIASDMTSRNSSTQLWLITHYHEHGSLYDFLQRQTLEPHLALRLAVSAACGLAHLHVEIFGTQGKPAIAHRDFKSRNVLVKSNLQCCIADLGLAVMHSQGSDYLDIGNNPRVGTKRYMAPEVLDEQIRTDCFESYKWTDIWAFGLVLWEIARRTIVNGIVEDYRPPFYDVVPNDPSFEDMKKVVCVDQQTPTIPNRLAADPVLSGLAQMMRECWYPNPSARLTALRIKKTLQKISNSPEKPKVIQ
Test: ALK1-Kinase Flashplate-Assay
Type: biochemical
Conditions: 0.5 μM ATP, biotinylated α-casein substrate; read-out: Assay 1 (ALK1-Kinase Flashplate-Assay IC50 class)
Excerpt: Biological Assay 1: ALK1-Kinase Flashplate-Assay
ALK1 phosphorylates serine/threonine residues of the biotinylated substrate bovine α-casein in the presence of [γ-^33P]ATP. Detection of the radiolabeled phosphorylated product is achieved by binding to streptavidine-coated Flashplates. The biotin moieties of biotinylated casein bind with high affinity to the streptavidine. The radiolabeled biotinylated casein produced by the ALK1 kinase reaction is able to generate a […] signal when strepatavidine-mediated binding occurs to the scintillant-containing surface of the Flashplates due to the close proximity of the radiolabel and the scintillant. […] The signals obtained are therefore indicative of the ALK1 kinase activity. Measurement is performed in a Perkin-Elmer TopCount or Perkin-Elmer ViewLux instrument.
Enzyme: Purified human recombinant ALK1 (GST fused to ALK1 intracellular domain [His142-Gln503]) produced in-house, aliquots stored at −80° C.;
Diluted enzyme working solution: 2.5 ng/μl ALK1 (in assay buffer) freshly prepared and chilled on ice until use.
Substrate: biotinylated bovine α-casein. Unbiotinylated casein obtained from Sigma was biotinylated by standard procedures using N-hydroxysuccinimide (NHS) ester of biotin.
Substrate working solution: 0.83 μM ATP, 1.67 μM biotinylated a-casein, 7.4 nCi [γ-^33P]ATP/μl in assay buffer
Assay plates: 384-well plates, small volume, white, Greiner (# 784075)
Flashplates: Streptavidin-coated Flashplates, Perkin Elmer (384-well # SPM410A)
Assay buffer: 50 mM Tris/HCl pH 8.0, 1 mM MnCl2, 1 mM DTT, 0.01% NP40, 0.5× Complete EDTA-free
Stop solution: 33.3 μM ATP, 33.3 mM EDTA, 0.07% Triton X-100 in PBS
Saturating buffer for Flashplates: 100 μM ATP, 0.2% Triton X-100 in PBS
Sealing tape: Greiner (# 676080)
Protocol for small volume 5 μl assay (all steps are performed at 20° C., pipetted with CyBi-Well and Multidrop Micro): • 1. 50 nl or 250 nl compound in 100% DMSO • 2. addition of 3 μl substrate working solution with CyBi-Well pipettor • 3. addition of 2 μl enzyme working solution with Multidrop Micro incubation for 60 min at room temperature • 4. addition of 15 μl Stop solution with CyBi-Well pipettor • 5. transfer of 18 μl assay mixture to Flashplates** with CyBi-Well pipettor incubation for at least 3 h at room temperature or over night at 4° C. to allow binding to the streptavidine-coated Flashplates • 6. washing the Flashplates 3 times with 50 μl PBS without Ca++ and Mg++ • 7. sealing with sealing tape • 8. Measurement in Topcount (60 sec/well) **Saturation of Flashplates: The Flashplates are preincubated for at least 1 hour with 50 μl saturating buffer. Remove 18 μl from the 50 μl and transfer 18 μl of the assay mixture to the Flashplate.
Final concentrations, calculated for 5 μl reaction volume: ALK1 5 ng/well; 1 μM biotinylated α-casein; 0.5 μM ATP; 22 nCi/well [γ-^33P]ATP; 1 mM MnCl2; 1 mM DTT; 50 mM Tris-HCl; pH 8.0; 0.01% NP40; 0.5× Complete EDTA-free; 1% or 5% DMSO.
The data were normalised (enzyme reaction without inhibitor=0% inhibition, enzyme reaction in the presence of 10 mM EDTA=100% inhibition) and IC50 values were calculated by a 4 parameter fit using an in-house software.

COc1ccc(-c2cnn3ccc(NC4CCC(O)CC4)nc23)cc1OC (stereo not drawn) [Example 69, 4-[3-(3,4-Dimethoxy-phenyl)-pyrazolo[1,5-a]pyrimidin-5-ylamino]-cyclohexanol]
IC50: < 1000 nM

CS(=O)(=O)Nc1cccc(-c2cnn3ccc(Nc4ccccc4)nc23)c1 [Example 243, N-[3-(5-Phenylamino-pyrazolo[1,5-a]pyrimidin-3-yl)-phenyl]-methanesulfonamide]
IC50: < 1000 nM

COc1cc(Nc2ccn3ncc(-c4ccncc4)c3n2)cc(OC)c1OC [Example 4, (3-Pyridin-4-yl-pyrazolo[1,5-a]pyrimidin-5-yl)-(3,4,5-trimethoxy-phenyl)-amine]
IC50: 1000 to 10000 nM

COc1ccc(-c2cnn3ccc(NCCO)nc23)cn1 [Example 164, 2-[3-(6-Methoxy-pyridin-3-yl)-pyrazolo[1,5-a]pyrimidin-5-ylamino]-ethanol]
IC50: 1000 to 10000 nM

Oc1cccc(-c2cnn3ccc(Nc4cccc(Cl)c4)nc23)c1 [Example 311, 3-[5-(3-Chloro-phenylamino)-pyrazolo[1,5-a]pyrimidin-3-yl]-phenol]
IC50: 1000 to 10000 nM

COc1cc(-c2cnn3ccc(Nc4cccc(Cl)c4)nc23)ccc1O [Example 314, 4-[5-(3-Chloro-phenylamino)-pyrazolo[1,5-a]pyrimidin-3-yl]-2-methoxy-phenol]
IC50: 1000 to 10000 nM

c1ccc(Nc2ccn3ncc(-c4cccs4)c3n2)cc1 [Example 242, Phenyl-(3-thiophen-2-yl-pyrazolo[1,5-a]pyrimidin-5-yl)-amine]
IC50: 1000 to 10000 nM

COc1cc(Nc2ccn3ncc(-c4cc(OC)c(OC)c(OC)c4)c3n2)cc(OC)c1OC [Example 77, (3,4,5-Trimethoxy-phenyl)-[3-(3,4,5-trimethoxy-phenyl)-pyrazolo[1,5-a]pyrimidin-5-yl]-amine]
IC50: < 1000 nM

O=C(O)c1ccc(-c2cnn3ccc(Nc4ccc(Oc5ccccc5)cc4)nc23)cc1 [Example 255, 4-[5-(4-Phenoxy-phenylamino)-pyrazolo[1,5-a]pyrimidin-3-yl]-benzoic acid]
IC50: < 1000 nM

CCN(CC)CCCNc1ccn2ncc(-c3ccc(C)c(Cl)c3)c2n1 [Example 492, N′-[3-(3-Chloro-4-methyl-phenyl)-pyrazolo[1,5-a]pyrimidin-5-yl]-N,N-diethyl-propane-1,3-diamine]
IC50: 1000 to 10000 nM

CS(=O)(=O)Nc1cccc(-c2cnn3ccc(Nc4ccc(Oc5ccccc5)cc4)nc23)c1 [Example 42, N-{3-[5-(4-Phenoxy-phenylamino)-pyrazolo[1,5-a]pyrimidin-3-yl]-phenyl}-methanesulfonamide]
IC50: 1000 to 10000 nM

CC(=O)c1cccc(-c2cnn3ccc(NCc4ccncc4)nc23)c1 [Example 216, 1-(3-{5-[(Pyridin-4-ylmethyl)-amino]-pyrazolo[1,5-a]pyrimidin-3-yl}-phenyl)-ethanone]
IC50: 1000 to 10000 nM

COc1cc(-c2cnn3ccc(Nc4ccc(F)c(Cl)c4)nc23)cc(OC)c1OC [Example 259, (3-Chloro-4-fluoro-phenyl)-[3-(3,4,5-trimethoxy-phenyl)-pyrazolo[1,5-a]pyrimidin-5-yl]-amine]
IC50: 1000 to 10000 nM

COc1cc(-c2cnn3ccc(NC4CCC(O)CC4)nc23)cc(OC)c1OC (stereo not drawn) [Example 474, 4-[3-(3,4,5-Trimethoxy-phenyl)-pyrazolo[1,5-a]pyrimidin-5-ylamino]-cyclohexanol]
IC50: < 1000 nM

NC(=O)c1cccc(-c2cnn3ccc(Nc4ccc(Oc5ccccc5)cc4)nc23)c1 [Example 38, 3-[5-(4-Phenoxy-phenylamino)-pyrazolo[1,5-a]pyrimidin-3-yl]-benzamide]
IC50: 1000 to 10000 nM

OCCNc1ccn2ncc(-c3ccc4c(c3)OCO4)c2n1 [Example 70, 2-(3-Benzo[1,3]dioxol-5-yl-pyrazolo[1,5-a]pyrimidin-5-ylamino)-ethanol]
IC50: 1000 to 10000 nM

COc1cccc(-c2cnn3ccc(Nc4ccc(O)cc4)nc23)c1 [Example 192, 4-[3-(3-Methoxy-phenyl)-pyrazolo[1,5-a]pyrimidin-5-ylamino]-phenol]
IC50: < 1000 nM

COc1cc(Nc2ccn3ncc(-c4cnn(C)c4)c3n2)cc(OC)c1OC [Example 182, [3-(1-Methyl-1H-pyrazol-4-yl)-pyrazolo[1,5-a]pyrimidin-5-yl]-(3,4,5-trimethoxy-phenyl)-amine]
IC50: 1000 to 10000 nM

COc1ccc(-c2cnn3ccc(Nc4ccc(C(C)C)cc4)nc23)cc1OC [Example 37, [3-(3,4-Dimethoxy-phenyl)-pyrazolo[1,5-a]pyrimidin-5-yl]-(4-isopropyl-phenyl)-amine]
IC50: 1000 to 10000 nM

CC(=O)Nc1cccc(-c2cnn3ccc(Nc4ccc(O)cc4)nc23)c1 [Example 50, N-{3-[5-(4-Hydroxy-phenylamino)-pyrazolo[1,5-a]pyrimidin-3-yl]-phenyl}-acetamide]
IC50: < 1000 nM

Nc1ccc(C(=O)Nc2ccc(Nc3ccn4ncc(-c5ccc(F)cc5)c4n3)cc2)cc1 [Example 400, 4-Amino-N-{4-[3-(4-fluoro-phenyl)-pyrazolo[1,5-a]pyrimidin-5-ylamino]-phenyl}-benzamide]
IC50: 1000 to 10000 nM

CC(=O)c1cccc(-c2cnn3ccc(Nc4ccc(O)cc4)nc23)c1 [Example 193, 1-{3-[5-(4-Hydroxy-phenylamino)-pyrazolo[1,5-a]pyrimidin-3-yl]-phenyl}-ethanone]
IC50: 1000 to 10000 nM

Nc1ccc(C(=O)Nc2ccc(Nc3ccn4ncc(-c5cnn(Cc6ccccc6)c5)c4n3)cc2)cc1 [Example 204, 4-Amino-N-{4-[3-(1-benzyl-1H-pyrazol-4-yl)-pyrazolo[1,5-a]pyrimidin-5-ylamino]-phenyl}-benzamide]
IC50: 1000 to 10000 nM

COc1ccc(-c2cnn3ccc(Nc4ccc(Oc5ccccc5)cc4)nc23)cc1OC [Example 33, [3-(3,4-Dimethoxy-phenyl)-pyrazolo[1,5-a]pyrimidin-5-yl]-(4-phenoxy-phenyl)-amine]
IC50: 1000 to 10000 nM

COc1cc(-c2cnn3ccc(Nc4ccc(Oc5ccccc5)cc4)nc23)cc(OC)c1OC [Example 254, (4-Phenoxy-phenyl)-[3-(3,4,5-trimethoxy-phenyl)-pyrazolo[1,5-a]pyrimidin-5-yl]-amine]
IC50: 1000 to 10000 nM

COc1ccccc1-c1cnn2ccc(Nc3ccc(O)cc3)nc12 [Example 84, 4-[3-(2-Methoxy-phenyl)-pyrazolo[1,5-a]pyrimidin-5-ylamino]-phenol]
IC50: 1000 to 10000 nM

Cc1ccc(Nc2ccn3ncc(-c4cccc(N)c4)c3n2)cc1NS(C)(=O)=O [Example 186]
IC50: 1000 to 10000 nM

Cn1cc(-c2cnn3ccc(Nc4ccc(N5CCOCC5)cc4)nc23)cn1 [Example 235, [3-(1-Methyl-1H-pyrazol-4-yl)-pyrazolo[1,5-a]pyrimidin-5-yl]-(4-morpholin-4-yl-phenyl)-amine]
IC50: 1000 to 10000 nM

CN(C)CCNC(=O)c1cccc(-c2cnn3ccc(Nc4ccc(O)cc4)nc23)c1 [Example 326, N-(2-Dimethylamino-ethyl)-3-[5-(4-hydroxy-phenylamino)-pyrazolo[1,5-a]pyrimidin-3-yl]-benzamide]
IC50: 1000 to 10000 nM

NC(=O)c1cccc(-c2cnn3ccc(NCc4ccncc4)nc23)c1 [Example 213, 3-{5-[(Pyridin-4-ylmethyl)-amino]-pyrazolo[1,5-a]pyrimidin-3-yl}-benzamide]
IC50: 1000 to 10000 nM
